Results on six compounds are retold here after patent US4619939A, “Process for reducing intraocular pressure” (priority 1985, dated 1986).

Series [1] is described as follows: solubility in water. The following applies: for ability to form an aqueous solution of sufficient concentration for topical use: near neutral pH.
The conditions of series [2]: Foss 1955; cited from earlier work.
Series [3] is described as follows: pKa by titration with NaOH. The series is classed as physicochemical. From the text: The pKa may be measured by titrating the compound with NaOH and finding the point at which half of the compound is neutralized. The pH at this point is the pKa.
Series [4] in a line: topical administration of prior art inhibitors, intraocular pressure. The series is classed as in vivo.
Series [5] is described as follows: first order rate constant for penetration through living rabbit cornea. The series is classed as in vivo. The procedure:
Still another critical property of the inhibitor compounds employed in this invention is that the compound must have a first order rate constant for penetration of the compound through a living rabbit cornea of at least 0.005 hr^-1. This property is important in that it sets a standard for a speed in which the inhibitor will pass through the cornea to the interior of the eye and be available to inhibit the activity of carbonic anhydrase in that location. This is measured by placing a solution of the compound (about 0.5 ml) on the cornea of the living, lightly anesthetized rabbit. The lids are held by light hemostats in such a way as to create a well to hold the solution so that a steady state concentration is achieved. At timed intervals, samples are withdrawn from the anterior chamber of the rabbit and the fluid analyzed for the concentration of drug. The analyses are done by the method of Maren, supra. The data are treated to yield the first order rate constants which are cited herein.

Series [6] can be described thus: stability in solution. The format is physicochemical. From the text:
The final property which is necessary for a compound used in this invention is that it be stable against decomposition in solution and in contact with the cornea. This property may be tested by dissolving the compound in aqueous solution and in solution containing corneal tissue to determine whether the compound has remained stable or has decomposed into other materials.

Series [7] can be described thus: ether partition coefficient at pH 7.2. The series is classed as physicochemical. The procedure: This property in conjunction with the chloroform coefficient is a measure of the lipid solubility of this compound. This is a critical feature since the compound must be readily absorbed by the lipid materials in the eye and be available for intimate contact with carbonic anhydrase so as to control its activity. This property is measured by preparing an aqueous solution of the compound at pH 7.2 and shaking the solution with an equal volume of ether until equilibrium is achieved in the system. An ether layer and an aqueous layer are formed, separated, and each analyzed for its content of the compound. The coefficient is the ratio of the amount of the compound in the ether layer to the amount of the compound in the aqueous layer. See, e.g., Maren, J. Pharm. […] Therap. Vol. 130, p.

The nature of series [8]: chloroform partition coefficient at pH 7.2. The series is classed as physicochemical. How it is done: Another critical property necessary in the inhibitors employed in this invention is the chloroform partition coefficient which must be at least 0.01. This property also relates to the lipid solubility of the compound employed and it is measured as described above with respect to ether. The procedure is the same as that described above except that chloroform is employed in place of ether.

The target in series [9] is carbonic anhydrase (Homo sapiens, UniProt P00918). Briefly: dissociation constant against carbonic anhydrase. The series is classed as biochemical. An excerpt:
The dissociation constant is the concentration of the compound that will inhibit one-half of the carbonic anhydrase in a test system wherein the conditions are so arranged that the compound is present in excess of the carbonic anydrase.

The nature of series [10]: injury to the cornea. The format is in vivo. The following applies: 2-5% solution. From the text: Still another critical property of the compounds employed in this invention is that they be pharmaceutically acceptable and not be injurious to the cornea being treated.

Where two headings read alike, the source gives them in different places. Some results are limits rather than exact numbers.

As for `CC(=O)Nc1nnc(S(N)(=O)=O)s1` [acetazolamide, 2-acetylamino-1,3,4-thiadiazole-5-sulfonamide], the “ability to form an aqueous solution of sufficient concentration for topical use” value in series [1] was “cannot be made into a water solution below pH 8 at concentrations sufficiently high”. Further, the “lowering intraocular pressure by topical administration” value in series [2] is “completely unsuitable”.
Usually pKa stands for the negative logarithm of the acid dissociation constant. Regarding `CC(=O)/N=c1/sc(S(N)(=O)=O)nn1C` [Methazolamide, 2-acetylimino-3-methyl-Δ^2-1,3,4-thiadiazoline-5-sulfonamide], the pKa in series [3] was 7.4. Besides, in [1], the “ability to form an aqueous solution of sufficient concentration for topical use” value is given as “cannot be made into a neutral solution with a sufficiently high concentration”. In addition, the “reduction of intraocular pressure by topical application” value in [4] is recorded as “not reduced except to a very slight extent in one of the series of tests”.
A word on the solubility: it is the dissolved amount per volume that the medium holds. High values mean a readily soluble substance, low ones a poorly soluble substance. Regarding `CCOc1ccc2nc(S(N)(=O)=O)sc2c1` [ethoxzolamide, 6-ethoxy-benzothiazole-2-sulfonamide], the pKa in series [3] is 8.1. Further, in series [1] (water), the solubility is not above 40 µg/mL. Also, in series [4], the “reduction of intraocular pressure by topical application” value was “ineffective”.
Regarding `NS(=O)(=O)c1nnc(-c2ccccc2Cl)s1` [2-orthochlorophenylthiadiazole-5-sulfonamide], the pKa in [3] (read-out: pKa) worked out at 7.3. The “in vivo rabbit cornea penetration rate constant” value in [5] came out at 0.3 h⁻¹. Besides, the stability in solution entry in series [6] is reported as “stable in solution”.
As usually defined, the Ki is a measure of affinity in units of concentration, obtained from inhibition or displacement. A low value points to tighter binding. With `Cn1nc(S(N)(=O)=O)sc1=NC(=O)C(Cl)(Cl)Cl` [trichloromethazolamide, 2-trichloroacetylimino-3-methyl-Δ^2-1,3,4-thiadiazoline-5-sulfonamide], the pKa in [3] (read-out: pKa) was found to be 7. Further, in [5], the “in vivo rabbit cornea penetration rate constant” value was 0.063 h⁻¹. The compound further returned an ether partition coefficient in series [7] of 56. The chloroform partition coefficient in [8] stood at 4. Besides, the stability in solution entry in series [6] is on record as “stable in solution for at least six hours”. Moreover, the inhibition constant Ki in series [9] is 0.02 µM. Moreover, the “injury or clouding of the cornea” value in series [10] is recorded as “does not injure or cloud the cornea”.
In turn, `Cn1nc(S(N)(=O)=O)sc1=NC(=O)C(F)(F)F` [trifluoromethazolamide, 2-trifluoroacetylimino-3-methyl-Δ^2-1,3,4-thiadiazoline-5-sulfonamide] returned a pKa in [3] of 6.6. For the same compound, in series [5], the “in vivo rabbit cornea penetration rate constant” value was 0.014 h⁻¹. Also, in series [7], the ether partition coefficient came to 6.0. The compound further displayed a chloroform partition coefficient in [8] of 0.3. In addition, the stability in solution result in series [6] is “stable in solution for two hours”. Also, the “injury or clouding of the cornea” value in series [10] is recorded as “does not injure or cloud the cornea”.
